Measurements published in patent publication US11286258B2, “Nature-inspired anticancer and antibacterial motifs and pharmaceutical composition thereof” (University of Sharjah, priority 2020, dated 2022).
≈ marks a conversion by molar mass, not a printed value.

How the values were obtained:
HEP3B = assay: MTT cell viability, HEP3B; assay type: cell-based; conditions: Homo sapiens, liver cancer, 48 h of drug treatment, average of three experiments
Description: (§1) Cell culture: In this study five different cancer cell lines were used, human lung carcinoma (A549), human breast adenoma (MCF-7), Cervical carcinoma (Hela), hepatocellular carcinoma (Hep3B), and colorectal adenocarcinoma (HCT-116). These cells were obtained from the European Collection of Cell Cultures (ECACC, UK). Hep3B cells were maintained in Dulbecco's Modified Eagle Medium (DMEM: Sigma-Aldrich), and the four other cell lines were maintained in Roswell Park Memorial Institute medium (RPMI, Sigma-Aldrich, St. Louis, Mo., USA), which was supplemented with 10% fetal bovine serum (FBS, Sigma-Aldrich) and 1% penicillin/streptomycin (Sigma-Aldrich). Cells were incubated all the time at 37° C. in a humidified atmosphere of 5% CO2. Cell viability studies: Cell viability was assessed using the MTT assay as described before. In brief, all cancer cell lines were seeded at a density of 4×10^4/well in 96 well flat-bottom plates. After 24 h from seeding, cells were treated with the synthesized compounds and left for an incubation period of 48 h. Upon reaching the indicated time point, the media was removed and replaced with 200 μL fresh media containing 0.5 mg/mL of MTT tetrazolium dye (Sigma-Aldrich). Cells were then incubated with MTT solution for 2 h at 37° C. The resultant formazan crystals were dissolved in 200 μl/well of DMSO and absorbance was measured at 570 nm using a microplate reader (Thermo Scientific).

[1] = test system: normal epithelial cells (HMEC); assay: Cell viability, normal epithelial cells; assay type: cell-based; conditions: Homo sapiens, 48 h of drug treatment, average of three experiments
Method: Cell viability studies: Cell viability was assessed using the MTT assay as described before. In brief, all cancer cell lines were seeded at a density of 4×10^4/well in 96 well flat-bottom plates. After 24 h from seeding, cells were treated with the synthesized compounds and left for an incubation period of 48 h. Upon reaching the indicated time point, the media was removed and replaced with 200 μL fresh media containing 0.5 mg/mL of MTT tetrazolium dye (Sigma-Aldrich). Cells were then incubated with MTT solution for 2 h at 37° C. The resultant formazan crystals were dissolved in 200 μl/well of DMSO and absorbance was measured at 570 nm using a microplate reader (Thermo Scientific).

[2] = test system: MRSA-3 (clinical isolate); assay: MIC broth microdilution, MRSA-3; assay type: cell-based, Staphylococcus aureus; conditions: Staphylococcus aureus, MRSA; overnight incubation, Mueller-Hinton broth; read-out: MIC MRSA-3 (clinical isolate)
Method: (§2) Antibacterial activity: The compounds were tested for the minimum inhibitory concentrations (MIC), which is the lowest concentration of a chemical required to inhibit visible microbial growth following overnight incubation. MIC values were determined using broth microdilution method according to the Clinical and Laboratory Standards Institute guidelines (CLSI, 2015, M07-A10). Mueller-Hinton broth was used as a culture medium in all the experiments. Exponentially growing bacterial cells were prepared in Mueller-Hinton broth at a concentration of approximately 5×10^5 CFU/mL. Two-fold serial dilutions of the test compound (8 concentrations ranged between 100-0.78 μg/mL) were tested. […] In each experiment, solvent (DMSO) was used as a negative control, un-treated control (composing of bacteria in Mueller-Hinton broth) was used as a growth control, blank (culture media alone) was used as sterility control. The 96-well microplate with the test compounds was incubated overnight at 37° C. Turbidity in wells indicated bacterial growth.
(§3) The compounds were tested on six MDR Gram-positive bacteria including three clinical isolates of methicillin-resistant Staphylococcus aureus (MRSA-1, MRSA-2 and MRSA-3) and three reference MRSA strains (ATCC33591, ATCC33592 and ATCC700699). They were also tested on three MDR Gram-negative bacteria including New Delhi metallo-beta-lactamase (NDM-1) positive, carbapenem-resistant E. coli (ATCC BAA2469), extended-spectrum beta-lactamase (ESBL) producing, colistin-resistant E. coli (CDC-AR-0346) and carbapenem-resistant Acinetobacter baumannii (ATCC BAA1605), in addition to two non-MDR bacteria from the same species, namely E. coli (ATCC 25922) Acinetobacter baumannii (ATCC 19606).

[3] = test system: Acinetobacter baumannii ATCC 19606; assay: MIC broth microdilution, A. baumannii ATCC 19606; assay type: cell-based; conditions: Acinetobacter baumannii, ATCC19606; not MDR; overnight incubation
Method: as §2, §3

HCT-116 = assay: MTT cell viability, HCT-116; assay type: cell-based; conditions: Homo sapiens, colon cancer, 48 h of drug treatment, average of three experiments
Description: as §1

MRSA-ATCC33591 = assay: MIC broth microdilution, MRSA ATCC33591; assay type: cell-based, Staphylococcus aureus; conditions: Staphylococcus aureus; overnight incubation, Mueller-Hinton broth; read-out: MIC MRSA-ATCC33591
Method: as §2, §3

[4] = test system: Acinetobacter baumannii ATCC BAA1605 (carbapenem-resistant); assay: MIC broth microdilution, A. baumannii ATCC BAA1605; assay type: cell-based; conditions: Acinetobacter baumannii, ATCCBAA1605, MDR; overnight incubation
Method: as §2, §3

MRSA-ATCC700699 (VISA) = assay: MIC broth microdilution, MRSA ATCC700699 (VISA); assay type: cell-based, Staphylococcus aureus; conditions: for MIC: Staphylococcus aureus, strain intermediately resistant to vancomycin, overnight incubation, read-out: MIC MRSA-ATCC700699 (VISA)
Method: as §2, §3

MCF-7 = assay: MTT cell viability, MCF-7; assay type: cell-based; conditions: Homo sapiens, MCF7; breast cancer; 48 h of drug treatment; average of three experiments
Description: as §1

[5] = test system: MRSA-2 (clinical isolate); assay: MIC broth microdilution, MRSA-2; assay type: cell-based, Staphylococcus aureus; conditions: Staphylococcus aureus, MRSA; overnight incubation, Mueller-Hinton broth; read-out: MIC MRSA-2 (clinical isolate)
Method: as §2, §3

A549 = assay: MTT cell viability, A549; assay type: cell-based; conditions: Homo sapiens, lung cancer, 48 h of drug treatment, average of three experiments
Description: as §1

[6] = test system: E. coli ATCC BAA2469 (NDM-1 carbapenem-resistant); assay: MIC broth microdilution, E. coli ATCC BAA2469; assay type: cell-based, Escherichia coli; conditions: overnight incubation; for MIC: Escherichia coli, ATCCBAA2469, MDR; for MIC E. coli ATCC BAA2469 (NDM-1 carbapenem-resistant): MDR
Method: as §2, §3

HELA = assay: MTT cell viability, HELA; assay type: cell-based; conditions: Homo sapiens, cervical cancer, 48 h of drug treatment, average of three experiments
Description: as §1

[7] = test system: E. coli CDC-AR-0346 (ESBL, colistin resistant); assay: MIC broth microdilution, E. coli CDC-AR-0346; assay type: cell-based, Escherichia coli; conditions: for MIC fold higher than that of colistin: E. coli CDC-AR-0346, colistin 6.25 μg/mL; for MIC: Escherichia coli, MDR, overnight incubation
Method: as §2, §3

[8] = test system: MRSA-1 (clinical isolate); assay: MIC broth microdilution, MRSA-1; assay type: cell-based, Staphylococcus aureus; conditions: Staphylococcus aureus, MRSA; overnight incubation, Mueller-Hinton broth; read-out: MIC MRSA-1 (clinical isolate)
Method: as §2, §3

| IC50 (HEP3B) [µM] | MIC [2] [µg/mL] | MIC [3] [µg/mL] | IC50 (HCT-116) [µM] | MIC (MRSA-ATCC33591) [µg/mL] | MIC [4] [µg/mL] | MIC (MRSA-ATCC700699 (VISA)) [µg/mL] | IC50 (MCF-7) [µM] | MIC [5] [µg/mL] | IC50 (A549) [µM] | MIC [6] [µg/mL] | MIC E. coli ATCC BAA2469 (NDM-1 carbapenem-resistant) [6] [µg/mL] | IC50 (HELA) [µM] | MIC fold higher than that of colistin [7] [fold] | MIC [7] [µg/mL] | MIC [8] [µg/mL] | MIC times less than the MIC of vancomycin (MRSA-ATCC700699 (VISA); VISA strain ATCC 700699, vancomycin 8 μg/mL) [times] | SMILES | IC50 [1] [µM] |
| --- | --- | --- | --- | --- | --- | --- | --- | --- | --- | --- | --- | --- | --- | --- | --- | --- | --- | --- |
| 2.03 ± 0.08 | 1.56 (≈ 3.46 µM) | 6.25 (≈ 13.9 µM) | 0.487 ± 0.03 | 3.12 (≈ 6.94 µM) | 12.5 (≈ 27.7 µM) | 3.12 (≈ 6.94 µM) | 1.86 ± 0.03 | 1.56 (≈ 3.46 µM) | 4.011 ± 0.02 | 6.25 to 12.5 (≈ 13.9 to 27.7 µM) | 12.5 (≈ 27.7 µM) | 2.56 ± 0.58 | 2 | 12.5 (≈ 27.7 µM) | 1.56 (≈ 3.46 µM) | – | FC(F)(F)c1ccc(N/N=C2\C=C[C@@]3(CC2)CC[C@@H]2NCCc4c2n3c2ccccc42)cc1 (racemic) [Compound 1e] | 2.91 ± 0.07 |
| 2.64 ± 0.03 | 6.25 (≈ 13.4 µM) | 12.5 (≈ 26.8 µM) | 1.96 ± 0.05 | 6.25 (≈ 13.4 µM) | 25 (≈ 53.6 µM) | 6.25 (≈ 13.4 µM) | 3.56 ± 0.1 | 6.25 (≈ 13.4 µM) | 5.99 ± 0.03 | 25 (≈ 53.6 µM) | – | 3.89 ± 0.07 | – | 25 (≈ 53.6 µM) | 6.25 (≈ 13.4 µM) | – | FC(F)(F)Oc1ccc(N/N=C2\C=C[C@@]3(CC2)CC[C@@H]2NCCc4c2n3c2ccccc42)cc1 [Compound 1f] | 18.38 ± 0.05 |
| 2.56 ± 0.07 | 1.56 (≈ 3.36 µM) | 6.25 (≈ 13.5 µM) | 1.78 ± 0.7 | 1.56 (≈ 3.36 µM) | 25 (≈ 53.8 µM) | 1.56 (≈ 3.36 µM) | 3.72 ± 0.05 | 1.56 (≈ 3.36 µM) | 4.897 ± 0.03 | 6.25 to 12.5 (≈ 13.5 to 26.9 µM) | 12.5 (≈ 26.9 µM) | 3.5 ± 0.06 | 2 | 12.5 (≈ 26.9 µM) | 1.56 (≈ 3.36 µM) | ~5 | Cc1ccc2c(c1)c1c3n2[C@@]2(C=C/C(=N\Nc4ccc(C(F)(F)F)cc4)CC2)CC[C@@H]3NCC1 [Compound 1h] | 11.53 ± 0.04 |
| 2.276 ± 0.01 | 1.56 (≈ 3.25 µM) | 6.25 (≈ 13 µM) | 3.39 ± 0.04 | 3.12 (≈ 6.5 µM) | 50 (≈ 104 µM) | 3.12 (≈ 6.5 µM) | 3.57 ± 0.34 | 1.56 (≈ 3.25 µM) | 5.491 ± 0.05 | 25 (≈ 52 µM) | – | 4.514 ± 0.03 | – | 50 (≈ 104 µM) | 1.56 (≈ 3.25 µM) | – | COc1ccc2c(c1)c1c3n2[C@@]2(C=C/C(=N\Nc4ccc(C(F)(F)F)cc4)CC2)CC[C@@H]3NCC1 [Compound 1k] | 28.01 ± 0.09 |
